This note sets out measurements from paper PMC11679778, “Jeju Citrus (Citrus unshiu) Leaf Extract and Hesperidin Inhibit Small Intestinal α-Glucosidase Activities In Vitro and Postprandial Hyperglycemia in Animal Model” (International Journal of Molecular Sciences, 2024).

For assay [1], the target named is T1, maltase (rat small intestinal).
T1 construct: gene Mgam; native; crude supernatant of commercial rat intestinal acetone powder (Sigma-Aldrich), not purified; maltose as substrate
The experiment in a line: liberated glucose by glucose oxidase method. Type of assay: biochemical. Particulars: crude rat intestinal acetone powder supernatant; maltose substrate; 0.1 M phosphate pH 7.0. From the text: liberated glucose by glucose oxidase method on maltase (rat small intestinal)

The target of assay [2] is T2, rat small intestinal α-glucosidase.
T2 construct: gene Mgam; native; crude supernatant of commercial rat intestinal acetone powder (Sigma-Aldrich), not purified; pNPG as substrate
The experiment in a line: pNPG hydrolysis, absorbance […] nm. Particulars: crude rat intestinal acetone powder supernatant; pNPG substrate; 0.1 M phosphate pH 6.9, 37 °C. Type of assay: biochemical.

As for `COc1ccc([C@@H]2CC(=O)c3c(O)cc(O[C@@H]4O[C@H](CO[C@@H]5O[C@@H](C)[C@H](O)[C@@H](O)[C@H]5O)[C@@H](O)[C@H](O)[C@H]4O)cc3O2)cc1O` [hesperidin], the HP in assay [1] is listed as 1.04 ± 0.03 mg/mL; in assay [2] it was 0.99 ± 0.14 mg/mL.
